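GI50 is the concentration that inhibits growth by half. Definition used: TGI = concentration required for complete inhibition of growth.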
Tests used:
Assay in all cases: NCI anticancer screen, dose series, 384-well format
MOLT-4 leukemia = tested on: MOLT-4 leukemia
NCI-H226 lung = tested on: NCI-H226 lung
NCI-H23 lung = tested on: NCI-H23 lung
NCI-H322M lung = tested on: NCI-H322M lung
NCI-H460 NSCLC = tested on: NCI-H460 NSCLC
NCI-H522 lung = tested on: NCI-H522 lung
NCI/ADR-RES ovarian = tested on: NCI/ADR-RES ovarian
OVCAR-3 ovarian = tested on: OVCAR-3 ovarian
OVCAR-4 ovarian = tested on: OVCAR-4 ovarian
OVCAR-5 ovarian = tested on: OVCAR-5 ovarian
OVCAR-8 ovarian = tested on: OVCAR-8 ovarian
PC-3 prostate = tested on: PC-3 prostate
RPMI-8226 leukemia = tested on: RPMI-8226 leukemia
RXF 393 renal = tested on: RXF 393 renal
SF-268 CNS = tested on: SF-268 CNS
SF-295 CNS = tested on: SF-295 CNS
SF-539 CNS = tested on: SF-539 CNS
SK-MEL-28 melanoma = tested on: SK-MEL-28 melanoma
SK-MEL-5 melanoma = tested on: SK-MEL-5 melanoma
SK-OV-3 ovarian = tested on: SK-OV-3 ovarian
SNB-19 CNS = tested on: SNB-19 CNS
SNB-75 CNS = tested on: SNB-75 CNS
SR leukemia = tested on: SR leukemia
SW-620 colon = tested on: SW-620 colon
T-47D breast = tested on: T-47D breast
TK-10 renal = tested on: TK-10 renal
UACC-257 melanoma = tested on: UACC-257 melanoma
UACC-62 melanoma = tested on: UACC-62 melanoma
UO-31 renal = tested on: UO-31 renal

Q: Which TGI (MOLT-4 leukemia) does the source give for `Cn1c(=O)n(-c2ccc(C(C)(C)C#N)cc2)c2c3cc(-c4cnc5ccccc5c4)ccc3ncc21` here?
A: 86 nM

Q: What about the GI50 (NCI-H226 lung) of the same compound?
A: < 10 nM

Q: What about the TGI (NCI-H226 lung) of the same compound?
A: 62.3 nM

Q: What about the GI50 (NCI-H23 lung) of the same compound?
A: 34.5 nM

Q: What about the TGI (NCI-H23 lung) of the same compound?
A: 723 nM

Q: And the GI50 (NCI-H322M lung)?
A: 12.1 nM

Q: What about the TGI (NCI-H322M lung) of the same compound?
A: 2560 nM

Q: What about the GI50 (NCI-H460 NSCLC) of the same compound?
A: < 10 nM

Q: And the TGI (NCI-H460 NSCLC)?
A: 532 nM

Q: What about the GI50 (NCI-H522 lung) of the same compound?
A: 10.4 nM

Q: What about the TGI (NCI-H522 lung) of the same compound?
A: 237 nM

Q: And the GI50 (NCI/ADR-RES ovarian)?
A: 29.7 nM

Q: What about the TGI (NCI/ADR-RES ovarian) of the same compound?
A: 8070 nM

Q: What about the GI50 (OVCAR-3 ovarian) of the same compound?
A: 12.3 nM

Q: What about the TGI (OVCAR-3 ovarian) of the same compound?
A: 1700 nM

Q: And the GI50 (OVCAR-4 ovarian)?
A: < 10 nM

Q: What about the TGI (OVCAR-4 ovarian) of the same compound?
A: 27.2 nM

Q: And the GI50 (OVCAR-5 ovarian)?
A: 13.3 nM

Q: What about the TGI (OVCAR-5 ovarian) of the same compound?
A: 298 nM

Q: And the GI50 (OVCAR-8 ovarian)?
A: < 10 nM

Q: What about the TGI (OVCAR-8 ovarian) of the same compound?
A: > 100000 nM

Q: What about the GI50 (PC-3 prostate) of the same compound?
A: < 10 nM

Q: What about the TGI (PC-3 prostate) of the same compound?
A: 2110 nM

Q: What about the GI50 (RPMI-8226 leukemia) of the same compound?
A: < 10 nM

Q: And the GI50 (RXF 393 renal)?
A: < 10 nM

Q: What about the TGI (RXF 393 renal) of the same compound?
A: > 100000 nM

Q: And the GI50 (SF-268 CNS)?
A: 19.4 nM

Q: What about the TGI (SF-268 CNS) of the same compound?
A: 3360 nM

Q: What about the GI50 (SF-295 CNS) of the same compound?
A: < 10 nM

Q: And the TGI (SF-295 CNS)?
A: 31.5 nM

Q: What about the GI50 (SF-539 CNS) of the same compound?
A: < 10 nM

Q: And the TGI (SF-539 CNS)?
A: 707 nM

Q: And the GI50 (SK-MEL-28 melanoma)?
A: 13.5 nM

Q: What about the TGI (SK-MEL-28 melanoma) of the same compound?
A: 95 nM

Q: What about the GI50 (SK-MEL-5 melanoma) of the same compound?
A: 12.7 nM

Q: What about the TGI (SK-MEL-5 melanoma) of the same compound?
A: 41.1 nM

Q: What about the GI50 (SK-OV-3 ovarian) of the same compound?
A: < 10 nM

Q: And the TGI (SK-OV-3 ovarian)?
A: 60.2 nM

Q: What about the GI50 (SNB-19 CNS) of the same compound?
A: 40.8 nM

Q: What about the TGI (SNB-19 CNS) of the same compound?
A: > 100000 nM

Q: What about the GI50 (SNB-75 CNS) of the same compound?
A: < 10 nM

Q: And the TGI (SNB-75 CNS)?
A: 80.9 nM

Q: And the GI50 (SR leukemia)?
A: < 10 nM

Q: And the TGI (SR leukemia)?
A: 17.2 nM

Q: And the GI50 (SW-620 colon)?
A: 28.2 nM

Q: And the TGI (SW-620 colon)?
A: > 100000 nM

Q: What about the GI50 (T-47D breast) of the same compound?
A: < 10 nM

Q: What about the TGI (T-47D breast) of the same compound?
A: 19.7 nM

Q: And the GI50 (TK-10 renal)?
A: 23.9 nM

Q: What about the TGI (TK-10 renal) of the same compound?
A: 126 nM

Q: And the GI50 (UACC-257 melanoma)?
A: 21.4 nM

Q: And the TGI (UACC-257 melanoma)?
A: 93.7 nM

Q: And the GI50 (UACC-62 melanoma)?
A: < 10 nM

Q: And the TGI (UACC-62 melanoma)?
A: 101 nM

Q: And the GI50 (UO-31 renal)?
A: 19.6 nM

Q: And the TGI (UO-31 renal)?
A: > 100000 nM

Source: PubChem BioAssay (NCI)
